Experimental data: patent US20220211037A1, “BIOSENSORS FOR DROUGHT STRESS IN PLANTS” (The Regents of the University of California, priority 2019, published 2022)
Like-named read-outs stand apart in the source and are kept apart here.

Legend:
[1] = target: T1, PYL3-Cy5.5/PYL3-BHQ3 heterodimer mixture (Arabidopsis thaliana, UniProt Q9SSM7); test: Fluorescence of 1:1 PYL3-Cy5.5 / PYL3-BHQ3 mixture as a function of ABA concentration; assay type: biochemical; settings: for Fluorescence from Cy5.5 in monomers / Sum of Cy5.5 fluorescence / Total fluorescence / Fluorescence from Cy5.5 in heterodimers / Fluorescence from Cy5.5 in homodimers: calculated; for Total fluorescence: BHQ3 concentration attenuation factor 0.27; for Fluorescence from Cy5.5 in heterodimers: FRET quenching factor 0.1; for Fluorescence from Cy5.5 in homodimers: self-quenching factor 0.8
T1 construct: made in house; host or cells: E. coli BL21[DE3], pET28
T1 sequence (Q9SSM7 1-209) 1: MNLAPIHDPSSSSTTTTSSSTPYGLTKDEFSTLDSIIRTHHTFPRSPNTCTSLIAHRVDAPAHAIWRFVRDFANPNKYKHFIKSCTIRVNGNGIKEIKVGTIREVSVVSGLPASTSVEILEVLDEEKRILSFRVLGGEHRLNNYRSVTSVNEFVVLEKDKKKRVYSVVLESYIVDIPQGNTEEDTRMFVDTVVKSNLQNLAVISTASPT
T1 sequence (Q9SSM7 1-209) 2: T1 sequence (Q9SSM7 1-209) 1
Experimental: This increase should arise from more dissociated PYL3-Cy5.5/PYL3-BHQ3 monomers, which lead to decreased FRET quenching of Cy5.5 by BHQ3 in the heterodimers and decreased self-quenching from Cy5.5 in PYL3-Cy5.5/PYL3-Cy5.5 homodimers as shown in FIG. 2C. Assuming BHQ3 in PYL3-BHQ3 behaves similarly as free BHQ3 in solutions, BHQ3 concentration dependent attenuation (FIG. 3D) is 64%, i.e., fluorescence is decreased to 36% of the signal of pure Cy5.5, at the BHQ3-PYL3 concentration of 4.0 μM used in the measurements. FRET quenching of Cy5.5 by BHQ3 in heterodimers is assumed to be 90%. […] In calculating the final fluorescence intensities (Total fluorescence) in Table 1, we employ the self-quenching, FRET quenching and BHQ3 concentration-dependent attenuation efficiency of 20%, 90% and 73.2%, respectively. The corresponding factors are 0.8, 0.1 and 0.27, respectively. The BHQ3 concentration dependent attenuation efficiency is slightly higher than 64% measured using a mixture of 4 μM of Cy5.5 and 4 μM BHQ3. The calculated final fluorescence intensities are within the standard deviations of the measured values.
For the data presented in Table 1, a self-quenching efficiency of 20% and BHQ3 concentration dependent quenching shown in FIG. 3C are used for calculation together with a calibrated fluorescence intensity of 79,653 cps from 4.65 μM Cy5.5. Units of fluorescence intensity are counts per second (cps). The values are calculated unless specified otherwise.^a Fluorescence intensity=amount of Cy5.5×calibrated unit fluorescence intensity.^b Fluorescence intensity=amount of Cy5.5×self-quenching factor (0.8)×calibrated unit fluorescence intensity.^c Fluorescence intensity=amount of Cy5.5×FRET quenching factor (0.1)×calibrated unit fluorescence intensity.^d Sum of a, b, and c.^e Total fluorescence=BHQ3 concentration attenuation factor (0.27)×d.

PYL3-Cy5.5 homodimers [2] = target: T2, PYL3-Cy5.5 homodimers (Arabidopsis thaliana, UniProt Q9SSM7); test: Static light scattering (SLS) average molecular mass of PYL3-Cy5.5 as a function of ABA concentration; assay type: biochemical
T2 construct: made in house; host or cells: E. coli BL21[DE3], pET28
T2 sequence (Q9SSM7 1-209): T1 sequence (Q9SSM7 1-209) 1
Experimental: (§1) UV-Vis absorption measurements were performed on PYL3-Cy5.5, PYL3-BHQ3, and a 1:1 mixture of PYL3 containing PYL3-Cy5.5 and PYL3-BHQ3 (Shimadzu UV-Vis-NIR spectrophotometer, UV1700). […] Static light scattering (SLS) was used to determine the average molar mass (Malvern Zetasizer Nano S90 fitted with a 633 nm He—Ne laser). The mass of PYL3, PYL3-Cy5.5 and PYL3-BHQ3 was measured using Bruker UltraFlextreme MALDI TOF. Samples for MALDI-TOF measurement were prepared using a dried droplet method in a 2,5-Dihydroxyacetophenone (2,5-DHAP) matrix. The mass spectra were acquired with laser repetition frequency of 0.7-1 kHz.
Results from Static Light Scattering (SLS) measurements were used to estimate average molecular mass (FIG. 2D) based on molecular motion in solution, although the method is controversial when the molecular mass is on the order of a few thousand atomic mass units.

[3] = target: T3, PYL3-Cy5.5 and PYL3-BHQ3 dimers (hetero- and homodimers) (Arabidopsis thaliana, UniProt Q9SSM7); test: Static light scattering (SLS) average molar mass of PYL3-Cy5.5 / PYL3-BHQ3 mixture as a function of ABA concentration; assay type: biochemical; settings: for PYLs in dimers (hetero- and homodimers, %) / PYLs in monomers (%): calculated using the SLS data
T3 construct: made in house; host or cells: E. coli BL21[DE3], pET28
T3 sequence (Q9SSM7 1-209) 1: T1 sequence (Q9SSM7 1-209) 1
T3 sequence (Q9SSM7 1-209) 2: T1 sequence (Q9SSM7 1-209) 1
Experimental: as §1

PYL3-Cy5.5 homodimers [4] = target: T2, PYL3-Cy5.5 homodimers; test: Fluorescence of PYL3-Cy5.5 as a function of ABA concentration (self-quenching); assay type: biochemical
Experimental: as §1
Fluorescence from PYL3 and BHQ3-PYL3 homodimers in aqueous solution is weak, whereas fluorescence from PYL3-Cy5.5 homodimers (FIG. 2B) was as similarly intense as that of Cy5.5. […] If there is no change to the fluorescence intensity, then no self-quenching occurs. […] This quenching efficiency was used to estimate the quenching efficiency between Cy5.5 and BHQ3 in PYL3 heterodimers.

[5] = target: T4, homodimeric receptor PYL3 (Arabidopsis thaliana, UniProt Q9SSM7); settings: read-out: equilibrium dissociation constant (Kd) of homodimeric receptor PYL3, cited from earlier work
T4 sequence (Q9SSM7 1-209): T1 sequence (Q9SSM7 1-209) 1

## CC1=CC(=O)CC(C)(C)[C@@]1(O)/C=C/C(C)=C\C(=O)O [ABA, abscisic acid]
[1]
  ABA concentration the current design can detect: 200 nM
[1]; ABA 0.1 μM
  Fluorescence (measured): 3960 cps
  Fluorescence from Cy5.5 in monomers: 630 cps
  Sum of Cy5.5 fluorescence: 14553 cps
  Total fluorescence: 4045 cps
  Fluorescence from Cy5.5 in heterodimers: 1575 cps
  Fluorescence from Cy5.5 in homodimers: 12348 cps
[1]; ABA 1.0 μM
  Fluorescence (measured): 4292 cps
  Fluorescence from Cy5.5 in monomers: 5040 cps
  Sum of Cy5.5 fluorescence: 16974 cps
  Total fluorescence: 4718 cps
  Fluorescence from Cy5.5 in heterodimers: 1350 cps
  Fluorescence from Cy5.5 in homodimers: 10584 cps
[1]; ABA 40 μM
  Fluorescence (measured): 5301 cps
  Fluorescence from Cy5.5 in monomers: 10080 cps
  Sum of Cy5.5 fluorescence: 19741 cps
  Total fluorescence: 5488 cps
  Fluorescence from Cy5.5 in heterodimers: 1092 cps
  Fluorescence from Cy5.5 in homodimers: 8568 cps
[1]; ABA 100 μM
  Fluorescence (measured): 6711 cps
  Fluorescence from Cy5.5 in monomers: 21420 cps
  Sum of Cy5.5 fluorescence: 25866 cps
  Total fluorescence: 7218 cps
  Fluorescence from Cy5.5 in heterodimers: 514 cps
  Fluorescence from Cy5.5 in homodimers: 4032 cps
[1]; ABA 1000 μM
  Fluorescence (measured): 9494 cps
  Fluorescence from Cy5.5 in monomers: 25200 cps
  Sum of Cy5.5 fluorescence: 28035 cps
  Total fluorescence: 7793 cps
  Fluorescence from Cy5.5 in heterodimers: 315 cps
  Fluorescence from Cy5.5 in homodimers: 2520 cps
[1]; ABA increased from less than one μM to one mM
  change of fluorescence intensity of the mixture: more than doubled
[1]; upon mixing with 100 μM ABA
  increase of fluorescence signal of the mixture: more than 50%
PYL3-Cy5.5 homodimers [2]; 0.1 μM ABA
  PYL3-Cy5.5 in the homodimer form: 94%
  average molecular mass (SLS): 50 kDa
PYL3-Cy5.5 homodimers [2]; 0.1 μM ABA, 51.6 kDa homodimers, 25.8 kDa monomers chosen
  PYL3-Cy5.5 in the monomeric form: 6%
PYL3-Cy5.5 homodimers [2]; 1 mM ABA
  PYL3-Cy5.5 in the homodimer form: 24%
  PYL3-Cy5.5 in the monomeric form: 76%
  average molecular mass (SLS): 30 kDa
PYL3-Cy5.5 homodimers [2]; ABA increases from 100 nM to 40 μM
  decrease of average molecular mass of the species in solution: ~20%
PYL3-Cy5.5 homodimers [2]; ABA increases from 50 to 100 μM
  further decrease of average molecular mass of the species in solution: 20%
[3]; 100 nM ABA
  average molecule mass (SLS) of PYL3-Cy5.5 / PYL3-BHQ3 mixture: 50 kDa
[3]; ABA 0.1 μM
  Average molar mass (measured, amu): 51110 amu
  PYLs in dimers (hetero- and homodimers, %): 98%
  PYLs in monomers (%): 2%
[3]; ABA 1.0 μM
  Average molar mass (measured, amu): 47410 amu
  PYLs in dimers (hetero- and homodimers, %): 84%
  PYLs in monomers (%): 16%
[3]; ABA 40 μM
  Average molar mass (measured, amu): 43330 amu
  PYLs in dimers (hetero- and homodimers, %): 68%
  PYLs in monomers (%): 32%
[3]; ABA 100 μM
  Average molar mass (measured, amu): 34050 amu
  PYLs in dimers (hetero- and homodimers, %): 32%
  PYLs in monomers (%): 68%
[3]; ABA 1000 μM
  Average molar mass (measured, amu): 31080 amu
  PYLs in dimers (hetero- and homodimers, %): 20%
  PYLs in monomers (%): 80%
PYL3-Cy5.5 homodimers [4]; ABA increases from 0.1 μM to 1 mM, on average
  increase of fluorescence intensity of PYL3-Cy5.5: 20%

## PYL3-Cy5.5: PYL3 protein monomer chemically conjugated to the fluorescent molecule Cy5.5
PYL3-Cy5.5 homodimers [4]; absence of ABA, aqueous solution
  self-quenching in the PYL3-Cy5.5 homodimers: at least 20%

## PYL3: Arabidopsis abscisic acid receptor PYL3 (SEQ ID NO:4), recombinant, forms homodimers that monomerize upon ABA binding
[5]; at saturating ABA concentrations
  Kd: 52 µM
[5]; without ABA
  Kd: 7.76 µM
